# Experimental data taken from the supplement of paper PMC11451515.
# System: SEM cells
# Test: cell viability relative to DMSO control; higher = less cytotoxic
# Conditions: 48 h
# Procedure, shortened: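 NOMO1 or SEM (500 cells/well) or P12-Ichikawa (1000 cells/well) leukemia cells were adapted for at least four passages in each medium. They were seeded in 1536-well plates (5 μl) and pin-dosed with library compounds in DMSO over an 11-point threefold series, 47 μM to 0.79 nM. CellTiter-Glo One luminescence was read after 48 h at 37°C. Viability is the per-plate percentage relative to DMSO wells, with cell-free wells as background.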
# [1] = HPLM + 10% dialyzed FBS, 0.000781 µM
# [2] = HPLM + 10% dialyzed FBS, 0.00234 µM
# [3] = HPLM + 10% dialyzed FBS, 0.00702 µM
# [4] = HPLM + 10% dialyzed FBS, 0.0211 µM
# [5] = HPLM + 10% dialyzed FBS, 0.0632 µM
# [6] = HPLM + 10% dialyzed FBS, 0.19 µM
# [7] = HPLM + 10% dialyzed FBS, 0.569 µM
# [8] = HPLM + 10% dialyzed FBS, 1.71 µM
# [9] = HPLM + 10% dialyzed FBS, 5.12 µM
# [10] = HPLM + 10% dialyzed FBS, 15.4 µM
# [11] = HPLM + 10% dialyzed FBS, 46.1 µM
# [12] = RPMI 5 mM glucose + 10% FBS, 0.000781 µM
# [13] = RPMI 5 mM glucose + 10% FBS, 0.00234 µM
# [14] = RPMI 5 mM glucose + 10% FBS, 0.00702 µM
# [15] = RPMI 5 mM glucose + 10% FBS, 0.0211 µM
# [16] = RPMI 5 mM glucose + 10% FBS, 0.0632 µM
# [17] = RPMI 5 mM glucose + 10% FBS, 0.19 µM
# [18] = RPMI 5 mM glucose + 10% FBS, 0.569 µM
# [19] = RPMI 5 mM glucose + 10% FBS, 1.71 µM
# [20] = RPMI 5 mM glucose + 10% FBS, 5.12 µM
# [21] = RPMI 5 mM glucose + 10% FBS, 15.4 µM
# [22] = RPMI 5 mM glucose + 10% FBS, 46.1 µM
# [23] = RPMI 5 mM glucose + 10% dialyzed FBS, 0.000781 µM
# [24] = RPMI 5 mM glucose + 10% dialyzed FBS, 0.00234 µM
# [25] = RPMI 5 mM glucose + 10% dialyzed FBS, 0.00702 µM
# [26] = RPMI 5 mM glucose + 10% dialyzed FBS, 0.0211 µM
# [27] = RPMI 5 mM glucose + 10% dialyzed FBS, 0.0632 µM
# [28] = RPMI 5 mM glucose + 10% dialyzed FBS, 0.19 µM
# [29] = RPMI 5 mM glucose + 10% dialyzed FBS, 0.569 µM
# [30] = RPMI 5 mM glucose + 10% dialyzed FBS, 1.71 µM
# [31] = RPMI 5 mM glucose + 10% dialyzed FBS, 5.12 µM
# [32] = RPMI 5 mM glucose + 10% dialyzed FBS, 15.4 µM
# [33] = RPMI 5 mM glucose + 10% dialyzed FBS, 46.1 µM
Structure (SMILES),cell viability [1] [%],cell viability [2] [%],cell viability [3] [%],cell viability [4] [%],cell viability [5] [%],cell viability [6] [%],cell viability [7] [%],cell viability [8] [%],cell viability [9] [%],cell viability [10] [%],cell viability [11] [%],cell viability [12] [%],cell viability [13] [%],cell viability [14] [%],cell viability [15] [%],cell viability [16] [%],cell viability [17] [%],cell viability [18] [%],cell viability [19] [%],cell viability [20] [%],cell viability [21] [%],cell viability [22] [%],cell viability [23] [%],cell viability [24] [%],cell viability [25] [%],cell viability [26] [%],cell viability [27] [%],cell viability [28] [%],cell viability [29] [%],cell viability [30] [%],cell viability [31] [%],cell viability [32] [%],cell viability [33] [%]
CC1(C)O[C@@H]2C[C@H]3[C@@H]4C[C@H](F)C5=CC(=O)C=C[C@]5(C)[C@@]4(F)[C@@H](O)C[C@]3(C)[C@]2(C(=O)CO)O1,97.9,98.7,91.3,83.5,58.3,51.5,41,44.9,43.8,54.4,45.4,98.3,120,87.1,82.6,65.5,63.2,63.4,49.5,51.1,56.1,53.7,116,109,98.4,91.3,59.6,55.2,39.1,51.7,47.8,44.6,49.2
CC(C)N[C@@H]1CCn2c(=O)[nH]c3cccc(c32)[C@H]1O,107,119,101,104,112,108,120,112,122,122,100,,,,,,,,,,,,102,112,113,122,125,123,107,117,101,125,102
OC[C@H]1O[C@H]([C@H](O)[C@@H]1O)N2\C=C/C(=O)NC2=O,107,107,107,115,123,124,122,103,115,92.7,90.7,96.8,105,102,102,107,91.9,114,78.3,93.2,78.3,86.1,101,110,103,106,92.8,117,108,91,105,94.3,88.3
c1ccc2[nH]c(-c3cscn3)nc2c1,93.6,120,111,107,115,105,109,69,111,42.7,116,98.5,132,121,85.9,112,108,126,71.3,103,23.7,71.7,112,127,121,94.4,129,132,139,80.6,124,33.7,97.3
CN[C@@H]1[C@@H](O)[C@@H](O[C@@H]2[C@@H](O)[C@H](O[C@H]3O[C@H](CN)[C@@H](O)[C@H](O)[C@H]3O)[C@@H](N)C[C@H]2NC(=O)[C@@H](O)CN)OC[C@]1(C)O,116,100,108,107,91.9,105,105,98.9,98,102,97.1,118,116,125,129,129,111,123,111,111,120,124,121,124,118,125,136,115,135,106,127,129,101
CC(C)(C#N)c1cc(Cn2cncn2)cc(C(C)(C)C#N)c1,101,92.6,87.4,103,111,104,21.8,112,116,117,113,123,116,115,102,109,106,21.3,122,126,125,111,,,,,,,,,,,
NNCCc1ccccc1,,,,,,,,,,,,,,,,,,,,,,,102,120,120,127,127,112,115,127,103,117,75.3
CC[C@H](NC1=C2N=C[NH]C2=NC=N1)C/3=N/C4=C(C(=CC=C4)F)C(=O)N3C5=CC=CC=C5,94.9,118,133,120,114,97.2,87.4,106,81.7,73.6,52.1,79.2,94.8,112,105,111,108,88.2,88.9,84.5,57.6,53.1,90.2,110,132,120,116,84.2,116,110,92.8,80.1,57.3
CCC1(c2ccccc2)C(=O)NCNC1=O,94.6,104,105,78.7,102,110,114,117,116,106,122,100,112,108,76.1,106,109,108,103,116,113,117,91.6,115,123,84.4,108,120,117,115,114,117,109
N[S+]([O-])(=O)C1=C(Cl)C=C2\N=C/N[S+]([O-])(=O)C2=C1,91.1,96.5,111,99,91.2,59.6,123,105,114,148,122,101,104,94.3,78.1,92.5,45.3,122,119,104,107,123,109,98.7,103,80.2,101,56.3,134,109,109,123,133
Cc1c(C)n(Cc2ccc(-c3ccccc3C(=O)O)cc2)c2ccc(C(=O)N[C@@H](C)c3ccc([N+](=O)[O-])cc3)cc12,106,101,117,105,107,105,116,110,108,109,119,109,109,115,112,118,119,118,124,120,121,110,99.2,117,115,112,116,127,120,117,115,115,106
CC1=C(C)C(=O)C(C(CCCCCC(=O)O)c2ccccc2)=C(C)C1=O (stereo not given),63.6,70.7,56.2,69.2,65.6,78.1,71.6,64.6,59.7,44.7,41,77.4,92,73.4,79.9,75.1,77.4,59,57.3,35.1,26.7,31.9,54.8,74.5,57.1,69.9,75.2,97.2,58.6,76.6,46.5,48.6,24.9
N#CCNC(=O)c1ccc(-c2ccnc(Nc3ccc(N4CCOCC4)cc3)n2)cc1,,,,,,,,,,,,98.5,107,122,108,126,116,103,107,87,37.9,13.1,91.3,107,105,115,120,101,91.5,88.5,65.1,37.2,21.6
CNc1nc(Nc2ccc(C(=O)N3CCOCC3)cc2OC)ncc1Cl,,,,,,,,,,,,107,120,101,104,113,107,70.9,128,97.9,92.4,42.2,123,106,118,111,120,114,78.5,114,131,105,68.8
C[C@H]1C[C@@H]2[C@H](CC[C@@]3(C)[C@H]2CC[C@]3(OC(C)=O)C(C)=O)[C@@]\4(C)CCC(=O)\C=C14,64.9,101,79.8,87,88.5,85.1,92.9,87.6,85.3,88.9,101,75,89.9,97.5,92.2,105,96.2,84.5,96.7,91.6,80.8,85.9,75.4,96,77.3,105,101,94.2,78.7,94.1,88,80.1,88.9
Cc1nc2cnc3ccc(C#Cc4cccnc4)cc3c2n1-c1ccc(C(C)(C)C#N)cc1,65.5,72.3,84.3,86.5,45.2,43.3,28.4,34,32.3,33.2,17,87.7,104,104,110,56.2,60.2,47.8,34.2,31,32.4,16.2,69.8,82.4,84.3,78.4,50.4,48.9,44.2,37.2,31.6,32.7,15.7
O=C(c1ccc(F)cc1)N1CCC[C@H](c2nc(-c3ccc(F)cc3)no2)C1,119,120,122,112,128,114,111,104,102,105,115,119,111,124,121,128,117,111,112,99.4,106,116,104,103,130,125,105,116,118,113,102,101,128
